From patent publication US8124793B2, “Derivatives of ethylene methanedisulfonate as cancer chemotherapeutic agents” (priority 2007, dated 2012)

Assays:
Assay type in all cases: cell-based
U-251 = assay: NCI screen, growth of human tumor cells: CNS Cancer U-251; details: U-251 (CNS Cancer), 10^−4 molar
Outline: (§1)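 Percent-growth read-out from the NCI cancer cell screen; data annotated by cancer type and molar concentration, ≥60 points per compound.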

SK-MEL-2 = assay: NCI screen, growth of human tumor cells: Melanoma SK-MEL-2; details: SK-MEL-2 (Melanoma), 10^−4 molar
Description: (§2) In the NCI screening process, each compound was tested and described by a minimum of 60 data points. The test data include, but are not limited to the type of cancer, the molar concentration used in the screen, and the percent growth of the cancer. In some cases, NMR and elemental analysis were used for structural assignment.

SN12C = assay: NCI screen, growth of human tumor cells: Renal Cancer SN12C; details: SN12C (Renal Cancer), 10^−4 molar
Outline: as §1

M14 = assay: NCI screen, growth of human tumor cells: Melanoma M14; details: M14 (Melanoma), 10^−4 molar
Outline: as §1

OVCAR-3 = assay: NCI screen, growth of human tumor cells: Ovarian Cancer OVCAR-3; details: OVCAR-3 (Ovarian Cancer), 10^−4 molar
Outline: as §1

KM12 = assay: NCI screen, growth of human tumor cells: Colon Cancer KM12; details: KM12 (Colon Cancer), 10^−4 molar
Outline: as §1

SK-MEL-28 = assay: NCI screen, growth of human tumor cells: Melanoma SK-MEL-28
Description: as §2

HT29 = assay: NCI screen, growth of human tumor cells: Colon Cancer HT29
Description: as §2

CCRF-CEM = assay: NCI screen, growth of human tumor cells: Leukemia CCRF-CEM; details: CCRF-CEM (Leukemia), 10^−4 molar
Outline: as §1

SR = assay: NCI screen, growth of human tumor cells: Leukemia SR; details: SR (Leukemia), 10^−4 molar
Outline: as §1

DU-145 = assay: NCI screen, growth of human tumor cells: Prostate Cancer DU-145; details: DV-145, 10^−4 molar
Outline: as §1

OVCAR-5 = assay: NCI screen, growth of human tumor cells: Ovarian Cancer OVCAR-5; details: OVCAR-5, 10^−4 molar
Description: as §2

MCF 7 = assay: NCI screen, growth of human tumor cells: Breast Cancer MCF 7; details: MCF 7 (Breast Cancer), 10^−4 molar
Description: as §2

SF-268 = assay: NCI screen, growth of human tumor cells: CNS Cancer SF-268; details: SF-268 (CNS Cancer), 10^−4 molar
Outline: as §1

SK-OV-3 = assay: NCI screen, growth of human tumor cells: Ovarian Cancer SK-OV-3; details: SK-OV-3 (Ovarian Cancer), 10^−4 molar
Description: as §2

AS49/ATCC = assay: NCI screen, growth of human tumor cells: Non-Small Cell Lung AS49/ATCC; details: AS49/ATCC (Non-Small Cell Lung), 10^−4 molar
Description: as §2

RPMI-8226 = assay: NCI screen, growth of human tumor cells: Leukemia RPMI-8226; details: RPMI-8226 (Leukemia), 10^−4 molar
Outline: as §1

HCT-116 = assay: NCI screen, growth of human tumor cells: Colon Cancer HCT-116; details: HCT-116 (Colon Cancer), 10^−4 molar
Outline: as §1

NCI-H226 = assay: NCI screen, growth of human tumor cells: Non-Small Cell Lung NCI-H226; details: NCI-H226, 10^−4 molar
Outline: as §1

human cancer cells = assay: NCI screen summary over the cancers tested (negative growth of human cancer cells); details: cancers with negative growth / cancers tested
Description: as §2
The derivatives in the tables are grouped using the same category as in the tables 1-6.

IGROVI = assay: NCI screen, growth of human tumor cells: Ovarian Cancer IGROVI; details: IGROVI (Ovarian Cancer), 10^−4 molar
Description: as §2

COLO205 = assay: NCI screen, growth of human tumor cells: Colon Cancer COLO205; details: COLO205, 10^−4 molar
Outline: as §1

NCI-H322M = assay: NCI screen, growth of human tumor cells: Non-Small Cell Lung NCI-H322M; details: NCI-H322M (Non-Small Cell Lung), 10^−4 molar
Description: as §2

UACC-257 = assay: NCI screen, growth of human tumor cells: Melanoma UACC-257; details: UACC-257 (Melanoma), 10^−4 molar
Description: as §2

SF-295 = assay: NCI screen, growth of human tumor cells: CNS Cancer SF-295; details: SF-295, 10^−4 molar
Outline: as §1

MALME-3M = assay: NCI screen, growth of human tumor cells: Melanoma MALME-3M; details: MALME-3M, 10^−4 molar
Description: as §2

SK-MEL-5 = assay: NCI screen, growth of human tumor cells: Melanoma SK-MEL-5; details: SK-MEL-5, 10^−4 molar
Outline: as §1

ACHN = assay: NCI screen, growth of human tumor cells: Renal Cancer ACHN; details: ACHN (Renal Cancer), 10^−4 molar
Outline: as §1

NCI-H23 = assay: NCI screen, growth of human tumor cells: Non-Small Cell Lung NCI-H23; details: NCI-H23, 10^−4 molar
Outline: as §1

HOP-62 = assay: NCI screen, growth of human tumor cells: Non-Small Cell Lung HOP-62; details: HOP-62 (Non-Small Cell Lung), 10^−4 molar
Outline: as §1

UACC-62 = assay: NCI screen, growth of human tumor cells: Melanoma UACC-62; details: UACC-62, 10^−4 molar
Outline: as §1

SF-539 = assay: NCI screen, growth of human tumor cells: CNS Cancer SF-539; details: SF-539, 10^−4 molar
Outline: as §1

RXF-393 = assay: NCI screen, growth of human tumor cells: Renal Cancer RXF-393; details: RXF-393 (Renal Cancer), 10^−4 molar
Outline: as §1

BT-549 = assay: NCI screen, growth of human tumor cells: Breast Cancer BT-549; details: BT-549 (Breast Cancer), 10^−4 molar
Outline: as §1

HS 578T = assay: NCI screen, growth of human tumor cells: Breast Cancer HS 578T; details: HS 578T (Breast Cancer), 10^−4 molar
Outline: as §1

NCI-H522 = assay: NCI screen, growth of human tumor cells: Non-Small Cell Lung NCI-H522; details: NCI-H522, 10^−4 molar
Description: as §2

CC1=C(CC2(C(=O)C(F)(F)C(F)(F)C(F)(F)F)S(=O)(=O)OCCOS2(=O)=O)C(=O)c2ccccc2C1=O [NSC 720683, ethylene perfluorobutyril-(3-methyl-1,4-naphtho-2-quinoyl)-1,1-ethanedisulfonate]
percent of growth of human tumor cells (U-251): 12% | percent of growth of human tumor cells (SK-MEL-2): −57% | percent of growth of human tumor cells (SN12C): −37% | percent of growth of human tumor cells (M14): −56% | percent of growth of human tumor cells (OVCAR-3): 30% | percent of growth of human tumor cells (KM12): 26% | % Growth (SK-MEL-28; SK-MEL-28, 10^−4 molar): −85% | % Growth (SK-MEL-28; SK-MEL-28, 10^−5 molar): −55% | % Growth (SK-MEL-28; SK-MEL-28, 10^−6 molar): −31% | % Growth (SK-MEL-28; SK-MEL-28, 10^−7 molar): 31% | % Growth (SK-MEL-28; SK-MEL-28, 10^−8 molar): 74% | % Growth (HT29; HT-29, 10^−4 molar): −100% | % Growth (HT29; HT-29, 10^−5 molar): −37% | % Growth (HT29; HT-29, 10^−6 molar): −6% | % Growth (HT29; HT-29, 10^−7 molar): 23% | percent of growth of human tumor cells (CCRF-CEM): 5% | percent of growth of human tumor cells (SR): −22% | % Growth (DU-145): −100% | % Growth (OVCAR-5): −71% | percent of growth of human tumor cells (MCF 7): −24% | percent of growth of human tumor cells (SF-268): 1% | percent of growth of human tumor cells (SK-OV-3): 24% | percent of growth of human tumor cells (AS49/ATCC): −45% | percent of growth of human tumor cells (RPMI-8226): 28% | percent of growth of human tumor cells (HCT-116): 22% | % Growth (NCI-H226): −68% | Percentage of cancers showing negative growth cancers tested (human cancer cells; 10^−5 M conc.): 100% | Percentage of cancers showing negative growth cancers tested (human cancer cells; 10^−6 M conc.): 100% | percent of growth of human tumor cells (IGROVI): 27% | % Growth (COLO205): −84% | percent of growth of human tumor cells (NCI-H322M): 25% | percent of growth of human tumor cells (UACC-257): −18% | % Growth (SF-295): −70% | % Growth (MALME-3M): −87% | % Growth (SK-MEL-5): −95% | percent of growth of human tumor cells (ACHN): −27% | % Growth (NCI-H23): −75% | percent of growth of human tumor cells (HOP-62): −28% | % Growth (UACC-62): −85% | % Growth (SF-539): −67% | percent of growth of human tumor cells (RXF-393): 9% | percent of growth of human tumor cells (BT-549): −50% | percent of growth of human tumor cells (HS 578T): −14% | % Growth (NCI-H522): −68%
